Test results reported in ChEMBL document CHEMBL1201862, “PubChem BioAssay data set” (2004).
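Results reflect a 48-hour exposure of cells in 96-well plates to compound at five concentrations. Here, GI50 denotes the concentration required for 50% inhibition of growth.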 Activity calls are given as the source filed them. Cut-off read from the data, not from the text of the source: active = GI50 up to about 1.1 µM and inactive = higher.

Experiments:
Assay in all cases: NCI tumour cell line growth inhibition, 48 h
K562 = system: K562
DMS-273 = system: DMS-273
SF-295 = system: SF-295
LXFL 529 = system: LXFL 529
A498 = system: A498
SW-620 = system: SW-620
OVCAR-4 = system: OVCAR-4
HCC 2998 = system: HCC 2998
M14 = system: M14
CCRF-CEM = system: CCRF-CEM
NCI-H226 = system: NCI-H226
SK-MEL-28 = system: SK-MEL-28
UO-31 = system: UO-31
NCI-H23 = system: NCI-H23
KM-20L2 = system: KM-20L2
UACC-62 = system: UACC-62
XF498 = system: XF498
SF-268 = system: SF-268
SNB-19 = system: SNB-19
Malme-3M = system: Malme-3M
786-0 = system: 786-0
OVCAR-5 = system: OVCAR-5
A549 = system: A549
COLO 205 = system: COLO 205
HCT-15 = system: HCT-15
HCT-116 = system: HCT-116
SR = system: SR
SK-OV-3 = system: SK-OV-3
TK-10 = system: TK-10
SN12C = system: SN12C
HOP-92 = system: HOP-92
UACC-257 = system: UACC-257
OVCAR-8 = system: OVCAR-8
NCI-H460 = system: NCI-H460
KM12 = system: KM12
RXF 393 = system: RXF 393
EKVX = system: EKVX
DLD-1 = system: DLD-1
RPMI-8226 = system: RPMI-8226
U-251 = system: U-251
SK-MEL-2 = system: SK-MEL-2
MOLT-4 = system: MOLT-4
DMS-114 = system: DMS-114
SNB-75 = system: SNB-75
HOP-18 = system: HOP-18
SNB-78 = system: SNB-78
SF-539 = system: SF-539
OVCAR-3 = system: OVCAR-3
LOX IMVI = system: LOX IMVI
HT-29 = system: HT-29
HOP-62 = system: HOP-62
SK-MEL-5 = system: SK-MEL-5
ACHN = system: ACHN
HL-60 = system: HL-60
M19-MEL = system: M19-MEL
IGROV-1 = system: IGROV-1
MDA-MB-435 = system: MDA-MB-435
CAKI-1 = system: CAKI-1
MDA-MB-231 = system: MDA-MB-231
NCI-H522 = system: NCI-H522
PC-3 = system: PC-3
DU-145 = system: DU-145
Hs-578T = system: Hs-578T
NCI/ADR-RES = system: NCI/ADR-RES
T47D = system: T47D
MDA-N = system: MDA-N
MCF7 = system: MCF7

Measured: GI50

CCOC(=O)N1C2C=C(C)C(ON2C(=O)c2ccccc2)C2C(C)C(=O)N21 (stereo unspecified)
inactive: K562 > 100 µM | DMS-273 > 100 µM | SF-295 > 100 µM | LXFL 529 > 100 µM | A498 > 100 µM | SW-620 > 100 µM | OVCAR-4 > 100 µM | HCC 2998 > 100 µM | M14 > 100 µM | CCRF-CEM > 100 µM | NCI-H226 > 100 µM | SK-MEL-28 > 100 µM | UO-31 > 100 µM | NCI-H23 > 100 µM | KM-20L2 > 100 µM | UACC-62 > 100 µM | XF498 > 100 µM | SF-268 > 100 µM | SNB-19 > 100 µM | Malme-3M > 100 µM | 786-0 > 100 µM | OVCAR-5 > 100 µM | A549 > 100 µM | COLO 205 > 100 µM | HCT-116 > 100 µM | SR > 100 µM | SK-OV-3 > 100 µM | TK-10 > 100 µM | SN12C > 100 µM | HOP-92 > 100 µM | UACC-257 > 100 µM | OVCAR-8 > 100 µM | NCI-H460 > 100 µM | KM12 > 100 µM | RXF 393 > 100 µM | EKVX > 100 µM | DLD-1 > 100 µM | RPMI-8226 > 100 µM | U-251 > 100 µM | SK-MEL-2 > 100 µM | MOLT-4 > 100 µM | DMS-114 > 100 µM | SNB-75 23.6 µM | HOP-18 > 100 µM | SNB-78 > 100 µM | SF-539 > 100 µM | OVCAR-3 > 100 µM | LOX IMVI > 100 µM | HT-29 > 100 µM | HOP-62 > 100 µM | SK-MEL-5 > 100 µM | ACHN > 100 µM | HL-60 > 100 µM | M19-MEL > 100 µM | IGROV-1 > 100 µM
> 100 µM: HCT-15

Cc1csc2c1C(=O)c1ccsc1C2=O
inactive: K562 2.85 µM | DMS-273 1.94 µM | SF-295 1.59 µM | LXFL 529 3.42 µM | A498 18.2 µM | SW-620 2.47 µM | OVCAR-4 1.89 µM | HCC 2998 6.11 µM | CAKI-1 19.6 µM | CCRF-CEM 4.03 µM | NCI-H226 11 µM | SK-MEL-28 1.53 µM | UO-31 2.87 µM | NCI-H23 1.16 µM | KM-20L2 4.28 µM | UACC-62 1.69 µM | MDA-MB-231 2.35 µM | XF498 2.35 µM | SF-268 2.96 µM | SNB-19 3.37 µM | 786-0 4.63 µM | OVCAR-5 1.96 µM | NCI-H522 2.21 µM | PC-3 2.58 µM | A549 1.72 µM | DU-145 1.88 µM | COLO 205 12.2 µM | Hs-578T 1.81 µM | HCT-116 2.17 µM | SR 4.15 µM | SK-OV-3 20.4 µM | TK-10 19.1 µM | SN12C 2.2 µM | HOP-92 3.56 µM | UACC-257 1.52 µM | OVCAR-8 2.99 µM | NCI-H460 1.87 µM | KM12 2.96 µM | NCI/ADR-RES 1.87 µM | RXF 393 3.21 µM | EKVX 7.98 µM | DLD-1 2.68 µM | RPMI-8226 3.61 µM | U-251 3.4 µM | SK-MEL-2 2.03 µM | MOLT-4 4.61 µM | DMS-114 1.69 µM | T47D 2.2 µM | SNB-75 1.97 µM | HOP-18 1.95 µM | SNB-78 4.27 µM | SF-539 2.01 µM | MCF7 1.41 µM | OVCAR-3 2.07 µM | LOX IMVI 1.26 µM | HT-29 2.65 µM | ACHN 2.98 µM | HL-60 2.65 µM | IGROV-1 3.24 µM
1.49 µM: HCT-15
active: MDA-MB-435 0.215 µM | M14 0.778 µM | Malme-3M 0.343 µM | MDA-N 0.293 µM | SK-MEL-5 0.589 µM | M19-MEL 0.175 µM

Brc1ccc(-c2cc3c(cc2C2SCCS2)OCO3)cc1
29.7 µM: HCT-15
inactive: K562 15.2 µM | DMS-273 35.6 µM | SF-295 28.2 µM | LXFL 529 25.4 µM | A498 19 µM | SW-620 25.6 µM | OVCAR-4 21.6 µM | HCC 2998 29 µM | M14 41.6 µM | CCRF-CEM 19.3 µM | NCI-H226 8.17 µM | SK-MEL-28 > 100 µM | UO-31 18.1 µM | NCI-H23 39.2 µM | KM-20L2 26.7 µM | XF498 14.2 µM | SF-268 26.9 µM | SNB-19 55.5 µM | Malme-3M 45.1 µM | 786-0 26.9 µM | OVCAR-5 16.6 µM | NCI-H522 10.9 µM | A549 18.2 µM | COLO 205 27.3 µM | HCT-116 30.1 µM | SR 18.4 µM | SK-OV-3 21.3 µM | TK-10 31.5 µM | SN12C 29 µM | UACC-257 30 µM | OVCAR-8 50.1 µM | NCI-H460 29.6 µM | KM12 39.4 µM | RXF 393 12.9 µM | EKVX 10.7 µM | DLD-1 31.5 µM | U-251 29.7 µM | SK-MEL-2 28.8 µM | MOLT-4 13.4 µM | DMS-114 23.2 µM | SNB-75 1.25 µM | HOP-18 49.4 µM | SNB-78 11.4 µM | SF-539 11.5 µM | OVCAR-3 16.6 µM | HT-29 33.3 µM | HOP-62 31.4 µM | SK-MEL-5 23.3 µM | ACHN 16.5 µM | HL-60 15.4 µM | M19-MEL 41.7 µM | IGROV-1 37.2 µM
active: LOX IMVI 0.359 µM
